Data set [1] relates to GM2 activator protein (GM2AP) in urine. From the text: (§1) In-house bred, female Wistar rats weighing 190-230 g were divided in the following experimental groups (FIG. 1): (i) Control: rats treated i.p. during 7-13 days with saline (0.9% NaCl), once daily.
(§2) For the whole experiment, rats were individually allocated in metabolic cages under temperature and humidity controlled conditions. Animals were allowed to eat regular chow and drink water ad libitum. At different times, 24-hour urine and blood samples were obtained. Urine was collected in graduated vessels supplemented with 100 μL of 0.1% sodium azide and 1 ml oil to prevent contamination and evaporation, respectively. Subsequently, urine was cleared by centrifugation at 1,175×g, aliquoted and stored at −80° C. Blood was drawn from a small incision in the tail and collected in heparinised capillaries. These were immediately centrifuged at 12,000×g and plasma was stored at −80° C. At the end of the experiment, rats were anesthetized with sodium pentobarbital (10 mg/kg). The kidneys were perfused with heparinised saline through the abdominal aorta, and they were immediately dissected. The right kidney and one half of the left one were swiftly frozen by immersion in liquid nitrogen, and stored at −80° C. Eventually, they were used for Western blot studies. For such a purpose, frozen tissues were homogenized under freezing conditions by hammer-smashing, until a fine powder was obtained. The powder was also kept at −80° C. The second half of the left kidney was immersed in 3.7% paraformaldehyde at 4° C. during 14-16 hours. After it, tissue samples were processed for immunohistochemical studies.
Protein extracts were obtained from 100 mg tissue homogenate powder, prepared by homogenizing the kidneys with a tissue mixer (Ultra-Turrax T8, IKA®-Werwe) at 4° C. in homogenization buffer (140 mM NaCl, 20 mM Tris-HCl pH=7.5, 0.5 Methylenediaminetetraacetic acid—EDTA-, 10% glycerol, 1% Igepal CA-630, 1 μg/mL aprotinin, 1 μg/mL leupeptin, 1 μg/mL pepstatin A, 1 mM phenylmethylsulphonyl fluoride—PMSF-). Tissue homogenates were centrifuged at 22,000 g during 15 minutes at 4° C. Supernatants were collected. Protein concentration was measured with a commercial kit (BioRad) based on the Lowry method. 50 μg total protein from tissue extracts or 20 μL cleared urine from each sample were separated by electrophoresis in 10-15% acrylamide gels (Mini Protean II system, BioRad). Immediately, proteins were electrically transferred to an Immobilon-P membrane (Millipore). […]
Protein concentration was determined by the Bradford method.

Data set [2] concerns PAI-1, KIM-1 and vimentin in renal tissue. As to the kind of experiment: Western blot of renal tissue homogenates for markers of tissue damage and repair.
Source text: as §1, §2
(§3) Protein extracts were obtained from 100 mg tissue homogenate powder, prepared by homogenizing the kidneys with a tissue mixer (Ultra-Turrax T8, IKA®-Werwe) at 4° C. in homogenization buffer (140 mM NaCl, 20 mM Tris-HCl pH=7.5, 0.5 Methylenediaminetetraacetic acid—EDTA-, 10% glycerol, 1% Igepal CA-630, 1 μg/mL aprotinin, 1 μg/mL leupeptin, 1 μg/mL pepstatin A, 1 mM phenylmethylsulphonyl fluoride—PMSF-). Tissue homogenates were centrifuged at 22,000 g during 15 minutes at 4° C. Supernatants were collected. Protein concentration was measured with a commercial kit (BioRad) based on the Lowry method. 50 μg total protein from tissue extracts or 20 μL cleared urine from each sample were separated by electrophoresis in 10-15% acrylamide gels (Mini Protean II system, BioRad). Immediately, proteins were electrically transferred to an Immobilon-P membrane (Millipore). After blocking the membrane to avoid unspecific binding, membranes were probed with antibodies against KIM-1 (R&D Systems), bone morphogenetic protein-7 (BMP-7, Santa Cruz Biotechnology), plasminogen activator inhibitor-1 (PAI-1, BD Biosciences), vimentin (Dako Denmark) and GM2 activator protein (GM2AP, see above).

The subject of data set [3] is Wistar rats. As to the kind of experiment: Survival rate and body weight evolution of rats treated with gentamicin. Type of data set: in vivo. Particulars: gentamicin 150 mg/kg/day (G-150), 7 days.
The test system of data set [4] is GM2 activator protein (GM2AP) in urine. In words: Urinary GM2AP (Western blot) and renal function in humans treated with gentamicin. Format: in vivo. The conditions noted are these: hospitalized patients under gentamicin regime for 2 or 3 days vs untreated controls. An excerpt:
Supernatants were collected.
As controls, the urine from age- and sex-matched individuals not receiving gentamicin was used.

Data set [5] has as its system Wistar rats. In words: Time course of markers of nephrotoxicity under gentamicin 150 mg/kg/day.
Source text: as §1, §2
(§4) Plasma and urine concentration of creatinine and blood urea nitrogen (BUN) were determined by an automated analysis system (Reflotron®, Roche Diagnostics, Barcelona, Spain) and commercial reactive strips (Roche Diagnostics, Barcelona, Spain), using 32 μL of plasma and urine. This method has a lower detection limit of 0.5 mg/dL for creatinine. Samples reading under 0.5 mg/dL creatinine were head-to-head re-assayed by the colorimetric method of Jaffe (Hervey, 1953. Nature, 171: 1125).
(§5) Urine protein concentration (mg/mL) was measured by the Bradford method (39). Daily protein excretion (mg/day) was obtained by multiplying urine protein concentration by the 24-hour urine flow (mL/day).
(§6) Urine NAG activity (arbitrary units, AU/mL), as an estimation of urine NAG concentration, was measured by a commercial enzymatic test (Roche Diagnostics, Barcelona, Spain) following the manufacturer's instructions. Urine NAG activity was converted into daily NAG excretion (AU/day) by multiplying urine NAG activity by 24-hour urine flow (mL/day).
as §3

The subject of data set [6] is Wistar rats. As to the kind of experiment: Kidney histology (haematoxylin and eosin). Format: in vivo. The method, then: Eventually, they were used for Western blot studies. […] The powder was also kept at −80° C. […] After it, tissue samples were processed for immunohistochemical studies.
Kidneys were kept in p-formaldehyde overnight at 4° C. Then, paraffin blocks were made and 5-μm tissue sections were cut and stained with hematoxilin and eosin. Photographs were taken under an Olympus BX51 microscope connected to an Olympus DP70 colour, digital camera.

For data set [7], the system named is Wistar rats. In words: Renal function characterization (plasma creatinine, BUN, urinary protein and NAG excretion) of gentamicin-treated rats. Particulars: for BUN concentration: vs control.
Source text: as §1, §2, §4, §5, §6

Setting [8] is: G-150, after inception of treatment.

Where two headings read alike, the source gives them in different places.

Regarding `N.N.[Cl][Pt][Cl]` [cisplatin], the “urinary GM2AP (Western blot)” value in data set [1] (two doses of cisplatin 10 mg/kg on first and third days, urine 4 days after treatment inception) is reported as “high levels”.
Regarding gentamicin, in data set [2] (G-50, 7 days, vs control), the “renal level of KIM-1” value is “no increment”, the “renal level of PAI-1” value is “no increment” and the “renal level of vimentin” value is reported as “no increment”. For the same molecule, in data set [2] (G-150, 7 days), the “renal level of KIM-1” value is “clear increase”, the “renal level of PAI-1” value is recorded as “clear increase” and the “renal level of vimentin” value is “clear increase”. Also, in data set [3], the body weight entry is “body weight loss” and the death rate is ~50%. Also, in data set [1] (G-50, 7 days, vs control), the “level of GM2AP in urine (Western blot)” value is recorded as “differential level”. Further, in data set [1] (G-50, 7 days, absent in control urine), the “GM2AP in urine (differential proteomics, 2D-electrophoresis)” value was “highly expressed”. Moreover, in data set [1] (G-150, 7 days, overt renal failure), the “level of GM2AP in urine (Western blot)” value is recorded as “increased”. Besides, the “urinary level of GM2AP (Western blot)” value in data set [4] is on record as “clearly higher”. Also, in data set [5] (setting [8]), the “day by which BUN concentration was increased” value came to 4 days and the “day by which proteinuria was increased” value stood at 4 days. Further, in data set [5] (G-150, urine, Western blot), the “day at which urinary level of GM2AP started to increase” value came to 1 days, the “day by which urinary level of KIM-1 was increased” value is 4 days and the “day by which urinary level of PAI-1 was increased” value stood at 4 days. The “time from beginning of administration at which GM2AP is detected by Western blot” value in data set [5] (gentamicin 150 mg/kg/day, urine) worked out at 24 h. For the same molecule, the renal histology entry in data set [6] (G-50, 7 days, vs control) is recorded as “no gross tissue alterations”. Also, the renal histology result in data set [6] (G-150, 7 days) is on record as “massive tubular necrosis”. In data set [7] (6 daily doses of 50 mg/kg/day (G-50)), the “nephrotoxic effect (pilot dose titration)” value is “no signs of nephrotoxicity”. The “nephrotoxic effect (pilot dose titration)” value in data set [7] (6 daily doses of 150 mg/kg/day (G-150)) is reported as “marked renal failure”. Besides, the BUN concentration result in data set [7] (G-50, 7 days) is listed as “not modified”. For the same molecule, the BUN concentration entry in data set [7] (G-150, 7 days) is given as “profoundly altered”.
